{
  "source": "patent US20240133870A1",
  "about": "“COMBINED TREATMENT FOR CANCER” (Yeda Research and Development Co. Ltd., priority 2021, published 2024)",
  "molecules": {"B1": {"name": "mFGF2: mouse FGF2 (protein, UniProt P15655 10-154, looked up)", "Fibroblast growth factor 2": "PALPEDGGAAFPPGHFKDPKRLYCKNGGFFLRIHPDGRVDGVREKSDPHVKLQLQAEERGVVSIKGVCANRYLAMKEDGRLLASKCVTEECFFFERLESNNYNTYRSRKYSSWYVALKRTGQYKLGSKTGPGQKAILFLPMSAKS"}, "B2": {"name": "ACHE: acetylcholinesterase (protein, UniProt P22303 32-614, looked up)", "Acetylcholinesterase": "EGREDAELLVTVRGGRLRGIRLKTPGGPVSAFLGIPFAEPPMGPRRFLPPEPKQPWSGVVDATTFQSVCYQYVDTLYPGFEGTEMWNPNRELSEDCLYLNVWTPYPRPTSPTPVLVWIYGGGFYSGASSLDVYDGRFLVQAERTVLVSMNYRVGAFGFLALPGSREAPGNVGLLDQRLALQWVQENVAAFGGDPTSVTLFGESAGAASVGMHLLSPPSRGLFHRAVLQSGAPNGPWATVGMGEARRRATQLAHLVGCPPGGTGGNDTELVACLRTRPAQVLVNHEWHVLPQESVFRFSFVPVVDGDFLSDTPEALINAGDFHGLQVLVGVVKDEGSYFLVYGAPGFSKDNESLISRAEFLAGVRVGVPQVSDLAAEAVVLHYTDWLHPEDPARLREALSDVVGDHNVVCPVAQLAGRLAAQGARVYAYVFEHRASTLSWPLWMGVPHGYEIEFIFGIPLDPSRNYTAEEKIFAQRLMRYWANFARTGDPNEPRDPKAPQWPPYTAGAQQYVSLDLRPLEVRRGLRAQACAFWNRFLPKLLSATDTLDEAERQWKAEFHRWSSYMVHWKNQFDHYSKQDRCSDL"}, "B3": {"name": "CCL4: secreted factor of the secretome library (protein, UniProt P13236 24-92, looked up)", "C-C motif chemokine 4": "APMGSDPPTACCFSYTARKLPRNFVVDYYETSSLCSQPAVVFQTKRSKQVCADPSESWVQEYVYDLELN"}, "B4": {"name": "TGFB3: Transforming Growth Factor Beta 3 (protein, UniProt P10600 301-412, looked up)", "Transforming growth factor …": "ALDTNYCFRNLEENCCVRPLYIDFRQDLGWKWVHEPKGYYANFCSGPCPYLRSADTTHSTVLGLYNTLNPEASASPCCVPQDLEPLTILYYVGRTPKVEQLSNMVVKSCKCS"}, "B5": {"name": "LTA: lymphotoxin alpha (protein, UniProt P01374 35-205, looked up)", "Lymphotoxin-alpha": "LPGVGLTPSAAQTARQHPKMHLAHSTLKPAAHLIGDPSKQNSLLWRANTDRAFLQDGFSLSNNSLLVPTSGIYFVYSQVVFSGKAYSPKATSSPLYLAHEVQLFSSQYPFHVPLLSSQKMVYPGLQEPWLHSMYHGAAFQLTQGDQLSTHTDGIPHLVLSPSTVFFGAFAL"}, "B6": {"name": "IL1A: secreted factor of the secretome library (protein, UniProt P01583 113-271, looked up)", "Interleukin-1 alpha": "SAPFSFLSNVKYNFMRIIKYEFILNDALNQSIIRANDQYLTAAALHNLDEAVKFDMGAYKSSKDDAKITVILRISKTQLYVTAQDEDQPVLLKEMPEIPKTITGSETNLLFFWETHGTKNYFTSVAHPNLFIATKQDYWVCLAGGPPSITDFQILENQA"}},
  "key": {"[1]": {"tested_on": "UACC62 melanoma BRAF (V600E) cell line", "test": "Human and mouse factor mediated resistance to vemurafenib in vitro", "type": "cell-based", "details": "for factor-mediated resistance to vemurafenib: FGF2 25 ng/ml", "method": "P-value of the rScore abrogation following the addition of FGFRi was calculated by two-sided t-test. ** P<0.01."}, "[2]": {"tested_on": "BRAF (V600E) melanoma cell lines", "test": "High-throughput secretome screen of GFP-labeled cells (rScore, bScore, ranks)", "type": "cell-based, human", "details": "for effect on resistance to BRAF/MEK inhibition (rScore sorted, 297 factors): UACC62 cell line", "method": "Cell lines—All cell lines (Table 1 hereinbelow) were cultured in DMEM supplemented with 100 units/ml Penicillin and Streptomycin, 2 μmM Glutamine, 1 μmM Pyruvate and 10% FCS, and maintained in a humidified incubator at 37° C. and 5% CO2. Cells were routinely tested for Mycoplasma contamination by PCR. To generate stable cell lines constitutively expressing GFP, cells were infected with lentivirus bearing plasmid pLEX_TRC206 and sorted by FACS to enrich for GFP positive population. For the in-vitro experiments, human cancer cell lines which constitutively expressed GFP were treated with various cytotoxic and targeted drugs (see Table 1 hereinbelow); and the effect of different secreted factors (Table 2 hereinbelow) on the innate resistance to a drug based on the cells' GFP level was determined.\nHigh throughput in-vitro screens—For high-throughput screens or drug dose curves, cells were counted by Vi-Cell XR (Beckman coulter). Cells were seeded on 384 wells plates (Corning, 3712) using the EL406 washer dispenser (BioTek). Liquid handling of medium and drugs was effected by CyBi (WellFlex vario, CyBio). GFP fluorescence of cells was measured at 477/517 nm (excitation/emission) using Cytation3 (BioTek). Due to fluorescence reading bias at plate margins and corners, these margins were discarded for analysis.\nHigh-throughput secretome screens—To screen for the effect of secreted factors on the response of cell lines to different drugs, the following seven-days procedure was performed. On day 0, GFP expressing cells were seeded at 1500-2000 cells per well on 384-wells plates (Corning, 3712), depending on the cell line's proliferation rate. Each plate was seeded with one cell line. At day 1, each plate was treated with the secretome library (Table 2 hereinabove), one well per factor. Immediately afterwards, each plate was treated either with a drug (Table 1 hereinabove) at the EC90 concentration or with DMSO control. The CyBi liquid handler was used to treat each plate with a drug and the secretome library as well as to replace the medium, drug and secreted factors following 3 days of incubation (day 4). Cell fluorescence was read at days 1, 4 and 7 by Cytation3, and for some of the experiments at day 6 as well. Wells of interest were imaged at day 7 using the Operetta (PerkinElmer).\n(2) Based on observations, the plate area spanning rows 4-13 and columns 4-21 was hardly affected by plate margins biases. This area is referred to herein as plate core. To control for row specific and column specific biases, plate outliers (Zscore>4 or Zscore<−4) and edges were masked. Next, to capture row and column (col) biases for the i-th row and the j-th column, the bias factor was calculated:\nUpon QC completion, 199 experiment plates and 79 control (DMSO) plates were left for further analysis. • 4—Scoring methods-A GFP value for wells without secretome factors was obtained by averaging over the plate internal control wells. Those wells contained the solvents used in the secretome library. pScore: The effect of the secreted factors on proliferation under DMSO was evaluated using pScore (proliferation score). Values were given in percent units.\nrScore: The effect of the secreted factors on resistance to anti-cancer drugs was evaluated using rScore (rescue score). rScore was assigned to a given factor under two conditions: • 1. drug effect was >30% (residual drug growth<0.7) • 2. proliferation ratio between factor treated and untreated cells in the presence of drug was higher than one:\nrSscore=S−S*residual drug growth\nBased on manual inspection of the rScore distribution across the data, the threshold for a potential effect on drug resistance was set to 0.2 (FIGS. 8A-D).\n(*) Negative values were considered as zero. […] Groups with less than 4 experiments were discarded, finally resulting in 13 groups of experiments (FIG. 1E). […]"}, "[3]": {"tested_on": "SK-MEL-5 BRAF (V600E) melanoma cells", "test": "Co-culture of stroma (WI-38 or HS-5) and cancer cells", "type": "cell-based, human", "method": "SK-MEL-5 BRAF (V600E) melanoma cells were co-cultured with the lung-derived stromal cell line WI-38 or with the bone marrow-derived stromal cell line HS-5 with or without vemurafenib (4 μM). […] Vehicle—DMSO, EGFRi—gefitinib (0.1 μM), EGFRi/HER2i—lapatinib (10 nM), METi—crizotinib (0.1 μM), FGFRi—AZD4547 (50 nM), NFkB/TNFRi—CAPE (10 μM), TGFBRi-LY2109761 (0.5 μM), gp130i—SC144 (1 nM). […] Error bars represent standard error. […] Error bars represent standard error. […] Human BRAF (V600E) melanoma cell lines UACC62 or G361 were used to generate xenograft tumor models in various tissues of nude mice. When tumors reached a volume of 500-700 μmm^3, they were resected, sliced, and cultured ex-vivo in the presence of different drug combinations or DMSO control. Following 4 days of drug treatment, slices were fixed, embedded in paraffin blocks, and subjected to immunohistochemistry, using anti-pERK antibody, or to immuno-fluorescence, using anti-pFGFR1 antibody. BRAFi (vemurafenib, 4 μM), FGFRi (AZD4547, 2 μM). Scale bar represents 50 μm.\nFour hours later, the melanoma BRAF (V600E) mutated cell line SK-MEL-5 was seeded on top of the stromal cells at a concentration of 1700 cells per well, or seeded without stroma. […] Concentrations of the inhibitors were based on dose curves with SK-MEL-5. For each inhibitor of potential mechanism of resistance, the maximal concentration with minimal effect (toxicity) on cell growth was selected (Cmax).\nTo compare rScore value of stroma-mediated resistance with or without a given inhibitor, the rScore values of each inhibitor in the presence of stroma, was calculated. As a reduction in rScore may stem from mere toxicity of the inhibitor, rather than the abrogation of the stroma mediated resistance, each inhibitor rScore was penalized by its toxicity.\nrScoreinhibitor=rScoreinhibitor+(rScorestroma−rScoreinhibitor)*tOxicitY(Cmax)inhibitor"}, "human NSCLC tumor biopsy": {"tested_on": "human NSCLC tumor biopsy", "test": "EVOC of NSCLC patient biopsies, viability", "type": "cell-based", "details": "treatment-naïve patient; osimertinib 4 μM alone", "text": "Error bars represent standard error. […] Scale bar represents 50 μm. […] Error bars represent standard error. […] Scale bar represents 50 μm.\nScale bar represents 50 μm. […] Scale bar represents 50 μm. […] Scale bar represents 50 μm."}, "[4]": {"details": "vemurafenib 2 μM, mTNF 50 ng/ml"}, "[5]": {"details": "80 experiments of BRAF (V600E) mutated melanoma cell lines treated with BRAF/MEK inhibitors"}, "[6]": {"details": "80 experiments of BRAF (V600E) mutated melanoma cell lines treated with BRAF/MEK inhibitors, in multiple experiments"}},
  "data": [
    {"molecule": "FGF2: human FGF2, recombinant secreted factor, FGFR ligand", "values": [
      {"measurement": "factor-mediated resistance to vemurafenib", "setting": "[1]; [4]", "value": "mediated resistance to vemurafenib"},
      {"measurement": "rank by rScore values (resistance)", "setting": "[2]; [5]", "value": 3},
      {"measurement": "rScore", "setting": "[2]; [6]", "value": "above 0.2"},
      {"measurement": "effect on resistance to BRAF/MEK inhibition (rScore sorted, 297 factors)", "setting": "[2]", "value": "strongest effect on resistance"}
    ]},
    {"molecule": "FC(F)(F)c1nnc2c(Sc3ccccc3)nc3ccc(Cl)cc3n12", "note": "[R7050, reference compound]", "values": [
      {"measurement": "toxicity to UACC62", "setting": "[1]; all concentrations tested", "value": "not toxic"},
      {"measurement": "abrogation of mouse TNF mediated resistance", "setting": "[1]; vemurafenib 2 μM, mTNF 50 ng/ml, range of concentrations", "value": "does not abrogate the mouse TNF mediated resistance"}
    ]},
    {"molecule": "CCCS(=O)(=O)Nc1ccc(F)c(C(=O)c2c[nH]c3ncc(-c4ccc(Cl)cc4)cc23)c1F", "note": "[vemurafenib]", "values": [
      {"measurement": "rScore of stroma-conferred resistance", "setting": "[3]; co-culture with bone-marrow derived stromal cell line HS-5", "value": "> 0.2"},
      {"measurement": "rScore of stroma-conferred resistance", "setting": "[3]; co-culture with lung-derived stromal cell line WI-38", "value": "> 0.2"}
    ]},
    {"molecule": "C=CC(=O)Nc1cc(Nc2nccc(-c3cn(C)c4ccccc34)n2)c(OC)cc1N(C)CCN(C)C", "note": "[osimertinib]", "values": [
      {"measurement": "cancer cell viability", "setting": "human NSCLC tumor biopsy", "value": "did not affect cancer cell viability"}
    ]},
    {"molecule": "B1", "values": [
      {"measurement": "factor-mediated resistance to vemurafenib", "setting": "[1]; [4]", "value": "mediated resistance to vemurafenib"}
    ]},
    {"molecule": "B2", "values": [
      {"measurement": "synergism with BRAF and MEK inhibition", "setting": "[2]; multiple melanoma cell lines", "value": "synergistic effect"}
    ]},
    {"molecule": "B3", "values": [
      {"measurement": "effect on resistance to BRAF/MEK inhibition (rScore sorted, 297 factors)", "setting": "[2]", "value": "strongest effect on resistance"}
    ]},
    {"molecule": "B4", "values": [
      {"measurement": "rank by bScore values (synergism)", "setting": "[2]; [5]", "value": "−3"},
      {"measurement": "bScore", "setting": "[2]; [6]", "value": "below −0.15"}
    ]},
    {"molecule": "B5", "values": [
      {"measurement": "effect on resistance to BRAF/MEK inhibition (rScore sorted, 297 factors)", "setting": "[2]", "value": "strongest effect on resistance"}
    ]},
    {"molecule": "B6", "values": [
      {"measurement": "effect on resistance to BRAF/MEK inhibition (rScore sorted, 297 factors)", "setting": "[2]", "value": "strongest effect on resistance"}
    ]}
  ]
}
